{"source": "patent US20250066286A1", "about": "“COMPOSITIONS OF (Z)-ENDOXIFEN AND METHODS OF ENRICHMENT THEREOF” (Atossa Therapeutics, Inc., priority 2022, published 2025)", "key": {"[1]": {"experiment": "Stability of (Z)-Endoxifen in acetone (HPLC peak table over time)", "type": "physicochemical", "conditions": "for E-form, RT 15.40, RRT 0.95 / HPLC peak RT 3.14, RRT 0.19 / HPLC peak RT 4.25, RRT 0.26 / HPLC peak RT 14.68, RRT 0.90 / HPLC peak RT 17.69, RRT 1.09 / HPLC peak RT 20.47, RRT 1.26 / HPLC peak RT 20.80, RRT 1.28 / HPLC peak RT 21.56, RRT 1.33 / HPLC peak RT 21.83, RRT 1.34 / HPLC peak RT 22.68, RRT 1.39 / HPLC peak RT 22.76, RRT 1.40 / Z-form, RT 16.25, RRT 1.00: acetone, 40° C."}, "[2]": {"experiment": "Competitive slurries of (Z)-endoxifen polymorphs (XRPD)", "type": "physicochemical", "conditions": "slurries of Forms I, IV and VII in various solvents, 3 days at room temperature or 24 hours at high temperature", "procedure": "This example covers conversions of (Z)-endoxifen polymorphs in solvent slurries. Slurries of Forms I and VII were generated with Forms I, IV, and VII in various solvents, and incubated for either 3 days at room temperature or for 24 hours at high temperature. Following these incubations, polymorphs were collected from the slurries and characterized by XRPD."}}, "data": [{"smiles": "CC/C(=C(\\c1ccc(O)cc1)c1ccc(OCCNC)cc1)c1ccccc1", "note": "[(Z)-endoxifen, (Z)-4-(1-(4-(2-(methylamino)ethoxy)phenyl)-2-phenylbut-1-enyl)phenol]", "values": [{"measurement": "Z-form, RT 15.13, RRT 1.00", "setting": "[1]; acetone at reflux (56° C.), T0, in % (unit assumed)", "value": 98.67}, {"measurement": "E-form, RT 15.40, RRT 0.95", "setting": "[1]; 4 hr", "value": 0.78, "unit": "%"}, {"measurement": "HPLC peak RT 3.14, RRT 0.19", "setting": "[1]; 4 hr", "value": 0.15, "unit": "%"}, {"measurement": "HPLC peak RT 4.25, RRT 0.26", "setting": "[1]; 4 hr", "value": 0.57}, {"measurement": "HPLC peak RT 14.68, RRT 0.90", "setting": "[1]; 4 hr", "value": 0.04, "unit": "%"}, {"measurement": "HPLC peak RT 17.69, RRT 1.09", "setting": "[1]; 4 hr", "value": 0.08, "unit": "%"}, {"measurement": "HPLC peak RT 20.47, RRT 1.26", "setting": "[1]; 4 hr", "value": 0.04}, {"measurement": "HPLC peak RT 20.80, RRT 1.28", "setting": "[1]; 4 hr", "value": 0.15, "unit": "%"}, {"measurement": "HPLC peak RT 21.56, RRT 1.33", "setting": "[1]; 4 hr", "value": 0.08, "unit": "%"}, {"measurement": "HPLC peak RT 21.83, RRT 1.34", "setting": "[1]; 4 hr", "value": 0.1, "unit": "%"}, {"measurement": "HPLC peak RT 22.68, RRT 1.39", "setting": "[1]; 4 hr", "value": 0.1, "unit": "%"}, {"measurement": "HPLC peak RT 22.76, RRT 1.40", "setting": "[1]; 4 hr", "value": 0.08, "unit": "%"}, {"measurement": "Z-form, RT 16.25, RRT 1.00", "setting": "[1]; 4 hr, in % (unit assumed)", "value": 97.28}, {"measurement": "E-form, RT 15.40, RRT 0.95", "setting": "[1]; 20 hr", "value": 1.03, "unit": "%"}, {"measurement": "HPLC peak RT 3.14, RRT 0.19", "setting": "[1]; 20 hr", "value": 0.11, "unit": "%"}, {"measurement": "HPLC peak RT 4.25, RRT 0.26", "setting": "[1]; 20 hr", "value": 2.00}, {"measurement": "HPLC peak RT 14.68, RRT 0.90", "setting": "[1]; 20 hr", "value": 0.04, "unit": "%"}, {"measurement": "HPLC peak RT 17.69, RRT 1.09", "setting": "[1]; 20 hr", "value": 0.08, "unit": "%"}, {"measurement": "HPLC peak RT 20.47, RRT 1.26", "setting": "[1]; 20 hr", "value": 0.05}, {"measurement": "HPLC peak RT 20.80, RRT 1.28", "setting": "[1]; 20 hr", "value": 0.21, "unit": "%"}, {"measurement": "HPLC peak RT 21.56, RRT 1.33", "setting": "[1]; 20 hr", "value": 0.08, "unit": "%"}, {"measurement": "HPLC peak RT 21.83, RRT 1.34", "setting": "[1]; 20 hr", "value": 0.08, "unit": "%"}, {"measurement": "HPLC peak RT 22.68, RRT 1.39", "setting": "[1]; 20 hr", "value": 0.09, "unit": "%"}, {"measurement": "HPLC peak RT 22.76, RRT 1.40", "setting": "[1]; 20 hr", "value": 0.01, "unit": "%"}, {"measurement": "Z-form, RT 16.25, RRT 1.00", "setting": "[1]; 20 hr, in % (unit assumed)", "value": 95.35}, {"measurement": "E-form, RT 15.40, RRT 0.95", "setting": "[1]; 24 hr", "value": 1.14, "unit": "%"}, {"measurement": "HPLC peak RT 3.14, RRT 0.19", "setting": "[1]; 24 hr", "value": 0.13, "unit": "%"}, {"measurement": "HPLC peak RT 4.25, RRT 0.26", "setting": "[1]; 24 hr", "value": 2.81}, {"measurement": "HPLC peak RT 14.68, RRT 0.90", "setting": "[1]; 24 hr", "value": 0.04, "unit": "%"}, {"measurement": "HPLC peak RT 17.69, RRT 1.09", "setting": "[1]; 24 hr", "value": 0.09, "unit": "%"}, {"measurement": "HPLC peak RT 20.47, RRT 1.26", "setting": "[1]; 24 hr", "value": 0.05}, {"measurement": "HPLC peak RT 20.80, RRT 1.28", "setting": "[1]; 24 hr", "value": 0.17, "unit": "%"}, {"measurement": "HPLC peak RT 21.56, RRT 1.33", "setting": "[1]; 24 hr", "value": 0.09, "unit": "%"}, {"measurement": "HPLC peak RT 21.83, RRT 1.34", "setting": "[1]; 24 hr", "value": 0.01, "unit": "%"}, {"measurement": "HPLC peak RT 22.68, RRT 1.39", "setting": "[1]; 24 hr", "value": 0.07, "unit": "%"}, {"measurement": "HPLC peak RT 22.76, RRT 1.40", "setting": "[1]; 24 hr", "value": 0.02, "unit": "%"}, {"measurement": "Z-form, RT 16.25, RRT 1.00", "setting": "[1]; 24 hr, in % (unit assumed)", "value": 94.73}, {"measurement": "E-form, RT 15.40, RRT 0.95", "setting": "[1]; 28 hr", "value": 1.26, "unit": "%"}, {"measurement": "HPLC peak RT 3.14, RRT 0.19", "setting": "[1]; 28 hr", "value": 0.11, "unit": "%"}, {"measurement": "HPLC peak RT 4.25, RRT 0.26", "setting": "[1]; 28 hr", "value": 3.14}, {"measurement": "HPLC peak RT 14.68, RRT 0.90", "setting": "[1]; 28 hr", "value": 0.04, "unit": "%"}, {"measurement": "HPLC peak RT 17.69, RRT 1.09", "setting": "[1]; 28 hr", "value": 0.1, "unit": "%"}, {"measurement": "HPLC peak RT 20.47, RRT 1.26", "setting": "[1]; 28 hr", "value": 0.06}, {"measurement": "HPLC peak RT 20.80, RRT 1.28", "setting": "[1]; 28 hr", "value": 0.19, "unit": "%"}, {"measurement": "HPLC peak RT 21.56, RRT 1.33", "setting": "[1]; 28 hr", "value": 0.09, "unit": "%"}, {"measurement": "HPLC peak RT 21.83, RRT 1.34", "setting": "[1]; 28 hr", "value": 0.01, "unit": "%"}, {"measurement": "HPLC peak RT 22.68, RRT 1.39", "setting": "[1]; 28 hr", "value": 0.09, "unit": "%"}, {"measurement": "HPLC peak RT 22.76, RRT 1.40", "setting": "[1]; 28 hr", "value": 0.02, "unit": "%"}, {"measurement": "Z-form, RT 16.25, RRT 1.00", "setting": "[1]; 28 hr, in % (unit assumed)", "value": 93.99}, {"measurement": "E-form, RT 15.40, RRT 0.95", "setting": "[1]; T0", "value": 0.65, "unit": "%"}, {"measurement": "HPLC peak RT 3.14, RRT 0.19", "setting": "[1]; T0", "value": 0.16, "unit": "%"}, {"measurement": "HPLC peak RT 4.25, RRT 0.26", "setting": "[1]; T0", "value": 0.12}, {"measurement": "HPLC peak RT 14.68, RRT 0.90", "setting": "[1]; T0", "value": 0.04, "unit": "%"}, {"measurement": "HPLC peak RT 17.69, RRT 1.09", "setting": "[1]; T0", "value": 0.08, "unit": "%"}, {"measurement": "HPLC peak RT 20.47, RRT 1.26", "setting": "[1]; T0", "value": 0.03}, {"measurement": "HPLC peak RT 20.80, RRT 1.28", "setting": "[1]; T0", "value": 0.07, "unit": "%"}, {"measurement": "HPLC peak RT 21.56, RRT 1.33", "setting": "[1]; T0", "value": 0.08, "unit": "%"}, {"measurement": "HPLC peak RT 21.83, RRT 1.34", "setting": "[1]; T0", "value": 0.07, "unit": "%"}, {"measurement": "HPLC peak RT 22.68, RRT 1.39", "setting": "[1]; T0", "value": 0.03, "unit": "%"}, {"measurement": "HPLC peak RT 22.76, RRT 1.40", "setting": "[1]; T0", "value": 0.06, "unit": "%"}, {"measurement": "Z-form, RT 16.25, RRT 1.00", "setting": "[1]; T0, in % (unit assumed)", "value": 98.28}, {"measurement": "Stability of (Z)-endoxifen produced from methods using acetone recrystallization only", "setting": "[1]; summary of TABLES 2 and 3", "value": "unstable"}, {"measurement": "Polymorphic form recovered (XRPD)", "setting": "[2]", "value": "majority of slurries yielded high purity Form I, some of the slurries yielded Form I with traces of Form IV or Form VII, and six slurries yielded primarily Form IV"}]}]}
